Patent EP0325571B1, “New amines, their use and preparation” (priority 1988, dated 1989)
pIC50: −log10 of the molar value. Like-named read-outs stand apart in the source and are kept apart here.

Columns and labels:
[1] = tested on: isolated urinary bladder; test: Anticholinergic activity on isolated urinary bladder (inhibition of carbachol-induced contraction of bladder strips); set-up: species or system guinea-pigs
Source text: a) Anticholinergic activity on isolated urinary bladder
Male guinea-pigs, weighing 250-350 g, were killed by a blow on the head and exsanguinated. The urinary bladders were quickly removed and placed in Na^+-Krebs, in which they were kept throughout the dissection procedure. The bladders were dissected free from adherent fat and connective tissue before they were cut open by an incision on each side from the base towards apex. The mucosa was carefully removed with a pair of scissors. Four strips, approximately 3-5 mm long were prepared by cutting in a parallel direction to the longitudinal muscle fibres, on each half of the bladder.
The bladder strips were immediately mounted vertically in 5 ml organ baths containing Na^+-Krebs solution aerated with carbogene gas to maintain the pH at about 7.4. The temperature, 37°C, was thermostatically controlled by a Lauda MS3 thermostatic circulator. The preparations were suspended between two hooks, one of which was connected to a Grass Instruments FT03 force transducer. The isomeric tension of the preparations was recorded by a Grass polygraph model 79D. The resting tension was applied to approximately 5 mN. The strips were allowed to stabilize for at least 45 minutes. During this period the resting tension was adjusted to 5 mN and the preparations were repeatedly washed.
In the preliminary experiments concentration - effect curves for carbachol (carbamylcholin chloride) were studied, in order to determine a suitable agonist concentration for inhibition studies with antagonist. The carbachol concentration chosen, 3 x 10^-6M, produced a submaximal contractant response (70%). In the inhibition studies, the strips were contracted with carbachol (3 x 10^-6M) every 15 minutes. The strips were washed three times after every agonist addition. This procedure was repeated until a reproducible contractant response was observed. A variation of about 10% for three subsequent contractions was accepted as reproducible.
Initially each antagonist was tested in a concentration of 10-t1M, on. two bladder-strips from different guinea-pigs. When a reproducible response with 3 × 10^-6M carbachol was obtained, the strips were incubated with the antagonist for 15 minutes before the next carbachol was added. If the antagonist produced more than 50% inhibition of the response to carbachol, a complete concentration-inhibition curve was also made. In the complete inhibition curves, the strips were then incubated for 60 minutes with a fixed concentration of the antagonist before the next addition of carbachol. The effect of the antagonists was calculated as per cent inhibition of the mean of the initial agonist-induced contractions. To generate concentration-inhibition curves the antagonists were studied in 6-8 concentrations and for each concentration a fresh preparation was used, i.e. the strips were only exposed to the antagonist once before they were discarded.

[2] = tested on: portal vein; test: Noradrenaline antagonism on isolated portal vein; set-up: species or system rat; conditions: 10 min; for pIC50: rat portal vein, noradrenaline 3 x 10-^7 M, 10 minutes incubation, read-out: Anti-N.A. effect IC50; for IC50: Rattus norvegicus, read-out: Anti-N.A. effect IC50 (M)
Source text: (§1) b) Antagonistic effect to noradrenaline and calcium on the portal vein
(§2) Preparation of isolated portal vein from rat
(§3) Animals : Albino, male rats, weighing about 200 g.
(§4) The rat is killed by a blow on the neck and decapitated. The abdomen is opened, the vein is dissected free from fat, cut open longitudinally and mounted in an organ bath. Changes in isometric tension is registered by a force displacement transducer, connected to an amplifier and a writing oscillograph.
Noradrenaline - antagonism on portal vein
Doses: Noradrenaline 3 x 10-^7 M
The chosen doses give about 70% of maximal response. The agonist is added to the bath at 10-minutes intervals. When reproducible contractions are obtained a fixed concentration of the test substance is added to the bath. After an incubation period of 10 minutes noradrenaline is added. The next concentration of the test substance is added when the original response of the agonist is obtained.
The antagonistic effect of the substance is calculated as per cent inhibition of the mean response by three preceding doses of the agonist.

[3] = tested on: portal vein; test: Ca-antagonistic effect on isolated portal vein (spontaneous myogenic activity); set-up: species or system rat
Source text: as §1, §2, §3, §4
Ca - antagonistic effect on portal vein
10 mM K^+-solution is added to the Krebs buffer to stabilize the spontaneous myogenic activity of the vein. The amplitude of the muscle contractions is measued. The test substance is added to the bath in cumulative doses until total inhibition is obtained.

[4] = Acute toxicity in mice, i.v. bolus; assay type: in vivo; conditions: mouse, in vivo, iv; LD50-interval: between highest dose where 4 mice survived and lowest dose where 4 mice died within 5 minutes after i.v. bolus
Method: (§5) d) Acute toxicity in mice
(§6) The antagonists to be tested were dissolved in 0.9% NaCI. If they were not soluble in 0.9% NaCI they were dissolved in double distilled water. The solutions were prepared on the day of the experiment.
(§7) White male mice, 25 g, were placed in a mouse holder. The tested compounds were given as i.v. bolus doses in one of the four tail-veins, with a volume of 0.01 ml/g mouse. Each substance concentration was given to a group of four mice. 4-5 different concentrations of the antagonists were made and tested.
(§8) LDso-interval : The LD50-interval was between the highest dose where 4 mice survived and the lowest dose where 4 mice died within 5 minutes after an i.v. bolus dose.

[5] = tested on: mice; test: Acute toxicity in mice, i.v. bolus; assay type: in vivo; conditions: lowest dose where 4 mice of 4 tested died within 5 minutes after i.v. bolus
Method: as §5, §6, §7, §8

[6] = tested on: conscious rat; test: Effect on heart rate in conscious rat (ECG); assay type: in vivo; conditions: i.v. injection
Source text: e) Effect on heart rate in conscious rat
The animal is slightly anaestetized by ether and an infusion cannula is inserted into a tail vein. While still asleep the rat is placed in a simple device, made of a coarse, somewhat elastic net fixing the rat in a constant position. Electrodes are attached to the extremities and connected to an ECG-pulse pre-amplifier and a Grass polygraph. By recording the ECG, the heart rate can then be determined.
Before any substance is given the animal has regained consciousness and the heart rate has been constant for at least 15 minutes.
The substance is injected, i.v. in the infusion cannula and flushed with physiological saline.
ECG is recorded 0.25, 0.5, 1, 2, 3 and 5 minutes after completed injection and then every 5 minutes until the original heart rate is obtained.

[7] = Cavia porcellus, 1 h, guinea-pig bladder strips contracted with carbachol 3 x 10^-6M; 60 minutes incubation with antagonist; read-out: Antichol. effect IC50
[8] = rat portal vein; 10 mM K^+-solution added; cumulative doses; read-out: Anti-Ca effect IC50
[9] = read-out: Antichol. effect IC50; guinea-pig bladder strips contracted with carbachol 3 x 10^-6M; 60 minutes incubation with antagonist
[10] = Cavia porcellus, 1 h, read-out: Antichol. effect IC50 (M), guinea-pig bladder strips contracted with carbachol 3 x 10^-6M; 60 minutes incubation with antagonist
[11] = Rattus norvegicus, read-out: Anti-Ca effect IC50 (M), rat portal vein; 10 mM K^+-solution added; cumulative doses

SMILES | pIC50 [1, 7] | pIC50 [2] | pIC50 [3, 8] | LD50 at 5 min [4] [mg/kg] | Lethal dose [5] [mg/kg] | other results
CC(C)N(CCC(c1ccccc1)c1ccccc1O)C(C)C (racemic) [Compound 1, N,N-Diisopropyl-3-(2-hydroxyphenyl)-3-phenylpropylamine] | 7.74 | 5.00 | 4.82 | 10 to 20 | 20 | Effect on heart rate threshold dose [6]: 1 to 3 mg/kg
Cc1ccc(O)c(C(CCN(C(C)C)C(C)C)c2ccccc2)c1 (single isomer, unassigned) [Compound 4b, (-)-N,N-Diisopropyl-3-(2-hydroxy-5-methylphenyl)-3-phenylpropylamine hydrogen D(-)-tartrate] | – | – | – | – | – | pIC50 [1, 9]: 5.89; pIC50 ([3]; read-out: Anti-Ca effect IC50; rat portal vein; 10 mM K^+-solution added; cumulative doses): 5.22
CC(C)N(CCC(c1ccccc1)c1ccccc1O)C(C)C (single isomer, unassigned; (+)) [Compound 1a, (+)-N,N-Diisopropyl-3-(2-hydroxyphenyl)-3-phenylpropylamine] | 7.74 | – | – | – | – | –
Cc1ccc(O)c(C(CCN(C(C)C)C(C)C)c2ccccc2)c1.O=C(O)C(O)C(O)C(=O)O (single isomer, unassigned; (+)) [Compound 4a, (+)-N,N-Diisopropyl-3-(2-hydroxy-5-methylphenyl)-3-phenylpropylamine hydrogen tartrate] | – | – | – | 10 to 20 | – | pIC50 ([1]; read-out: Antichol. effect IC50; guinea-pig bladder strips contracted with carbachol 3 x 10^-6M; 60 minutes incubation with antagonist; tartrate): 7.89; pIC50 ([3]; read-out: Anti-Ca effect IC50; rat portal vein; 10 mM K^+-solution added; cumulative doses; tartrate): 5.19
CC(C)N(CCC(c1ccccc1)c1ccccc1O)C(C)C (single isomer, unassigned; (-)) [Compound 1b, (-)-N,N-diisopropyl-3-(2-hydroxyphenyl)-3-phenylpropylamine] | – | – | – | – | – | pIC50 ([1]; guinea-pig bladder strips contracted with carbachol 3 x 10^-6M; 60 minutes incubation with antagonist; read-out: Antichol. effect IC50): 7.85
COc1ccccc1C(CCN(C)C(C)(C)C)c1ccccc1 (stereo not drawn) [Compound 2] | 6.82 | 5.46 | 5.05 | 10 to 20 | 20 | –
COc1ccccc1C(CCN(C(C)C)C(C)C)c1ccccc1 (stereo not drawn) [Compound 3] | – | – | – | 3 to 10 | 10 | IC50 [1, 10]: 2.4e-07 M; IC50 [2]: 3.6e-06 M; IC50 [3, 11]: > 0.0001 M
Cc1ccc(O)c(C(CCN(C(C)C)C(C)C)c2ccccc2)c1 (stereo not drawn) [Compound 4, N,N-Diisopropyl-3-(2-hydroxy-5-methylphenyl)-3-phenylpropylamine] | – | – | – | 30 to 40 | – | pIC50 [1, 9]: 7.82; IC50 [2]: 5.5e-06 M; IC50 [3, 11]: 6e-06 M
CN(CCC(c1ccccc1O)c1ccccc1O)C(C)(C)C [Compound 5] | 8.31 | 4.42 | 4.52 | 30 to 45 | 45 | Effect on heart rate threshold dose [6]: 1 to 3 mg/kg
CC(C)N(CCC(c1ccccc1)c1cc(O)ccc1O)C(C)C (stereo not drawn) [Compound 7] | 7.72 | 4.30 | 4.19 | 30 to 50 | 50 | –
CN(CCC(c1ccccc1)c1cc(O)ccc1O)C(C)(C)C (stereo not drawn) [Compound 8] | 7.51 | 4.30 | < 4.30 | > 6 | >6 | –
CN(CCC(c1ccccc1)c1ccccc1O)C(C)(C)C (stereo not drawn) [Compound 9] | 7.80 | 4.30 | 4.60 | – | 20 | –
COc1ccccc1C(CCN1C(C)(C)CCCC1(C)C)c1ccccc1 (stereo not drawn) [Compound 10] | 7.21 | 5.40 | 5.15 | – | – | –
CC(C)N(CCC(c1ccccc1O)c1ccccc1O)C(C)C [Compound 13] | – | – | – | 5 to 10 | 10 | IC50 [1, 10]: 9e-09 M; IC50 [2]: 3e-05 M; IC50 [3, 11]: 1.5e-05 M
COc1ccccc1C(CCN(C)C)c1ccccc1 (stereo not drawn) [GB-A-1.169.944, N,N-dimethyl-3-(2-methoxyphenyl)-3-phenylpropylamine, reference compound] | 5.92 | 5.36 | 4.68 | 10 to 15 | 15 | –
CC(CC(c1ccccc1)c1ccccc1)NC(C)(C)C (stereo not drawn) [Terodiline, terodiline, reference compound] | 6.28 | 5.62 | 5.00 | 15 to 20 | 20 | Effect on heart rate threshold dose [6]: 1 to 3 mg/kg
